One data set concerns wild-type HBV. Nature of the data set: intracellular HBV DNA replication assay, wild-type HBV. It is filed as cell-based, Hepatitis B virus. On the procedure:
(§1) Drug susceptibility assays were performed as previously described. Cytotoxicity assays in PBM, CEM and Vero cells were conducted as previously described. Two compounds were used for testing, the first, an adenine nucleoside analog which contained hydroxyl groups at R^1 and R^1a on the sugar portion of the molecule (compound 15/18) and the second, a prodrug nucleoside based upon compound 15/18 which contained a phosphoamidate group on R^1 (R^1a was H) containing a phenyl group as R^6 and B′ was an amino acid group derived from alanine, where R^8 was methyl and R″ was a methyl group, forming a methyl ester. These compounds were tested in a standard HBV assay in the laboratory of Dr. Brent Korba.

Data set [1] concerns HBV double mutant rtL180M/rtM204V. Nature of the data set: intracellular HBV DNA replication assay, double mutant. It is filed as cell-based. Particulars: Hepatitis B virus. The protocol:
as §1

The next data set concerns HBV rtA181T and rtN236T. Particulars: cited from earlier work.
The subject of data set [2] is lamivudine-resistant mutants including rtM204V/I±rtL180M. To be noted: literature ref. 50; cited from earlier work.
The test system of a further data set is HBV. Kind of data set: standard HBV assay (laboratory of Dr. Brent Korba). It is filed as cell-based, Hepatitis B virus. The protocol:
as §1

The subject of another data set is HBV rtL180M. Nature of the data set: intracellular HBV DNA replication assay, rtL180M mutant. It is filed as cell-based, Hepatitis B virus. The protocol:
as §1

Molecules are shown by their SMILES. pEC50: −log10 of the molar value.

Here are results for 5 compounds from patent US8946244B2, “2′-fluoro-6′methylene carbocyclic nucleosides and methods of treating viral infections” (University of Georgia Research Foundation, Inc., priority 2009, dated 2015).

Usually melting point stands for the temperature, or range, at which the solid turns liquid.

Take `Nc1ncnc2c1ncn2CCOCP(=O)(O)O` [adefovir]: the EC90 was found to be 7.1 µM with wild-type HBV (Hepatitis B virus, HBV-WT, concentration required to inhibit 90% of HBV DNA, read-out: EC90 against wild-type HBV) and 8.5 µM in data set [1] (read-out: EC90 against double mutant rtL180M/rtM204V). In data set [1] (read-out: EC50 against double mutant rtL180M/rtM204V), the pEC50 was 5.66. Besides, the “increase in median effective concentration” value in the data set with HBV rtA181T and rtN236T was “two-fold to nine-fold”. Take `C=C1[C@H](CO)[C@@H](O)C[C@@H]1n1cnc2c(=O)[nH]c(N)nc21` [entecavir]: the “fold loss of activity against lamivudine-resistant mutants” value in data set [2] is listed as 8 fold.

As to `C=C1[C@@H](n2cnc3c(N)ncnc32)[C@@H](F)[C@H](O)[C@H]1CO` (hydrate or solvate) [Compound 15, (+)-(1R,2R,3R,5R)-3-(6-amino-9H-9-purinyl)-2-fluoro-5-(hydroxymethyl)-4-methylenecyclopentan-1-ol], the melting point was 215 to 218 °C (dec.). For `C=C1C(COP(=O)(N[C@@H](C)C(=O)OC)Oc2ccccc2)C(O)C(F)C1n1cnc2c(N)ncnc21` (stereo partly drawn) [Test Number 2, 2′-Deoxy-2′-fluoro-3′-hydroxy-4′-(hydroxymethyl)-5′-methylene-carbocyclic Adenosine (2′-FMCA) Monophosphate prodrug], the “times more active than the compound where both R1 and R1a are H” value in the data set with HBV is reported as “more than 10 times”. As for `C=C1[C@@H](n2cnc3c(N)ncnc32)[C@@H](F)[C@H](O)[C@H]1CO` [Compound 15, (+)-(1R,2R,3R,5R)-3-(6-amino-9H-9-purinyl)-2-fluoro-5-(hydroxymethyl)-4-methylenecyclopentan-1-ol], the “fold more potent than adefovir (EC90)” value with wild-type HBV (wild-type HBV, EC90) was determined as 1.5 fold. Further, the “fold increased antiviral activity in the EC90 value versus lamivudine” value in the data set on HBV rtL180M is 4.3 fold.
